Among the data in PubChem BioAssay (NCI) are GI50 and TGI values, retold here.

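Following 48 hours of exposure in 96-well plates, responses at five concentrations were used to interpolate endpoints linearly. GI50 is the concentration that inhibits growth by half. TGI is the concentration that stops growth completely.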

One assay deals with NCI-H23 lung. Description: inhibition of tumour cell growth, NCI panel, 48 h.
`CO[C@H]1/C=C(/C)CCC[C@H](C)[C@H](O)[C@@H](C)C(=O)C(C)(C)[C@@H](O)CC(=O)O[C@@H]1/C(C)=C/c1csc(C)n1`: the GI50 was 0.0349 µM and the TGI is > 100 µM.
As for `COc1cccc2c(=O)oc(-c3ccc(C(C)(C)C)cc3)nc12`, the TGI was > 100 µM.
With `COC(=O)C1CCC(=O)N1C(c1ccc(OC)cc1)c1ccc2c(c1)OCO2` (stereo not drawn), the TGI is > 100 µM.
In the case of `CCN(CC)CCn1c(=O)c2cccnc2n2c3c(=O)n(C)c(=O)n(C)c3nc12`, the TGI was > 100 µM.
On the same count and under the same terms, then `CC(=N/N=C/c1ccccn1)/C(C)=N/N=C(C)/C(C)=N/N=C(C)/C(C)=N/N=C(C)/C(C)=N\N=C\c1ccccn1`, with > 100 µM; and `CC1=NN(c2cccc(Cl)c2)C2(C1=C/C=C/c1ccccc1)C(Cl)C(=O)N2c1nc2ccccc2s1` (stereo not drawn), with > 80.3 µM; and `C=CCSc1nnc2cc(CN3CCCC3)c(-c3ccc(Cl)cc3)nn12`, with 59.4 µM.
On the same count and under the same terms, then `CN(C)c1ccc(C(=N/N=C2\C(=O)Nc3ccccc32)c2ccc(N(C)C)cc2)cc1`, with 31.1 µM.
On the same count and under the same terms, for `CCN(CC)CCN(C(=Nc1ccccc1)N1CCOCC1)c1ccccc1` the value was > 100 µM; for `CC1(C)CCCC2OC2CCC(C)(C)C1=O` (stereo not drawn), > 100 µM; for `COP(=O)(/C=C/c1cc(C(=O)OCc2ccccc2)n(S(=O)(=O)c2ccccc2)c1)OC`, > 100 µM.
For `NC1=NCC(CN2CCOCC2)O1` (stereo not drawn), the TGI was > 100 µM.
In the case of `CCC1(CC)C(=O)NN(C(=O)c2ccccc2)C1=O`, the TGI is > 100 µM.

The subject of the next assay is BT-549 breast. Kind of assay: inhibition of tumour cell growth, NCI panel, 48 h.
`O=C(O)/C=C(/C(=O)O)C12CCN3CC4=CCOC5CC(=O)NC1C5C4CC32` (stereo not drawn): the TGI was > 100 µM.
Consider `O=c1c2sc(=S)n(-c3ccc(F)cc3)c2ncn1/N=C/c1ccc(F)cc1F`, for which the TGI is 37.5 µM.
Still for that read-out and setting: for `CS(=O)c1ncc2c(n1)-c1ccccc1OC2` (stereo not drawn) the value was > 100 µM; for `COc1cccc2c1OC1(C=C2)Oc2ccccc2C(=O)N1C` (stereo not drawn), 88.2 µM.
Still for that read-out and setting: for `O=[N+]([O-])c1ccc(Oc2c(Cl)cc(S(=O)(=O)/N=C(\NO)Nc3ccc(Cl)cc3)cc2Cl)cc1` the value was 25 µM.
As to `O=c1[nH]c(=O)n(C2OC(CO)C(O)C2O)c2nc(-c3ccc(-c4ccccc4)cc3)cnc12` (stereo not drawn), the TGI was > 100 µM.
On the same count and under the same terms, for `CN1CSC(=S)N(c2c3ccccc3nc3ccc(Br)cc23)C1` the value was 32.2 µM; for `O=C(O)c1ccccc1CC1Cc2ccccc2C1=O` (stereo not drawn), > 100 µM; for `CCCCCCOc1ccc(C(=O)NOC)cc1`, > 100 µM.
Same read-out and setting: then `NS(=O)(=O)c1cc(Cl)c(NC(=S)NC(=O)Nc2ccc(Cl)c(Cl)c2)c(Cl)c1`, with > 100 µM; and `Cc1cn(C2CC(O)C(CO)O2)c(=O)[nH]c1=O` (stereo not drawn), with > 5000 µM; and `O=C1c2ccccc2-c2c1c(-c1ccc(F)cc1)nc1ccc3ccccc3c21`, with > 100 µM.
Still for that read-out and setting: then `O=C(O)CCC(=O)OC1N=C(c2ccccc2Cl)c2cc([N+](=O)[O-])ccc2NC1=O` (stereo not drawn), with > 100 µM.
`CO[C@H]1/C=C(/C)CCC[C@H](C)[C@H](O)[C@@H](C)C(=O)C(C)(C)[C@@H](O)CC(=O)O[C@@H]1/C(C)=C/c1csc(C)n1`: the GI50 is 0.0498 µM and the TGI is > 100 µM.
For `COc1cccc2c(=O)oc(-c3ccc(C(C)(C)C)cc3)nc12`, the TGI is > 100 µM.
Still for that read-out and setting: for `COC(=O)C1CCC(=O)N1C(c1ccc(OC)cc1)c1ccc2c(c1)OCO2` (stereo not drawn) the value was > 100 µM; for `CCN(CC)CCn1c(=O)c2cccnc2n2c3c(=O)n(C)c(=O)n(C)c3nc12`, > 100 µM.
In the case of `CC(=N/N=C/c1ccccn1)/C(C)=N/N=C(C)/C(C)=N/N=C(C)/C(C)=N/N=C(C)/C(C)=N\N=C\c1ccccn1`, the TGI was > 100 µM.
The same measure, in the same setting: for `CC1=NN(c2cccc(Cl)c2)C2(C1=C/C=C/c1ccccc1)C(Cl)C(=O)N2c1nc2ccccc2s1` (stereo not drawn) the value was > 100 µM; for `C=CCSc1nnc2cc(CN3CCCC3)c(-c3ccc(Cl)cc3)nn12`, 42.4 µM.
The same measure, in the same setting: for `CN(C)c1ccc(C(=N/N=C2\C(=O)Nc3ccccc32)c2ccc(N(C)C)cc2)cc1` the value was 38.6 µM; for `CCN(CC)CCN(C(=Nc1ccccc1)N1CCOCC1)c1ccccc1`, > 100 µM; for `CC1(C)CCCC2OC2CCC(C)(C)C1=O` (stereo not drawn), > 100 µM.
For the molecule `COP(=O)(/C=C/c1cc(C(=O)OCc2ccccc2)n(S(=O)(=O)c2ccccc2)c1)OC`, the TGI was > 100 µM.
In the case of `NC1=NCC(CN2CCOCC2)O1` (stereo not drawn), the TGI is > 100 µM.
On the same count and under the same terms, for `CCC1(CC)C(=O)NN(C(=O)c2ccccc2)C1=O` the value was > 100 µM.

Another assay has as its system HOP-62 NSCLC. Description: inhibition of tumour cell growth, NCI panel, 48 h.
As to `O=C(O)/C=C(/C(=O)O)C12CCN3CC4=CCOC5CC(=O)NC1C5C4CC32` (stereo not drawn), the TGI is > 100 µM.
For the molecule `O=c1c2sc(=S)n(-c3ccc(F)cc3)c2ncn1/N=C/c1ccc(F)cc1F`, the TGI worked out at 30.7 µM.
Regarding `CS(=O)c1ncc2c(n1)-c1ccccc1OC2` (stereo not drawn), the TGI is > 100 µM.
Same read-out and setting: then `COc1cccc2c1OC1(C=C2)Oc2ccccc2C(=O)N1C` (stereo not drawn), with > 100 µM.
On the same count and under the same terms, then `O=[N+]([O-])c1ccc(Oc2c(Cl)cc(S(=O)(=O)/N=C(\NO)Nc3ccc(Cl)cc3)cc2Cl)cc1`, with 32.7 µM; and `O=c1[nH]c(=O)n(C2OC(CO)C(O)C2O)c2nc(-c3ccc(-c4ccccc4)cc3)cnc12` (stereo not drawn), with > 100 µM.
Turning to `CN1CSC(=S)N(c2c3ccccc3nc3ccc(Br)cc23)C1`, the TGI was determined as 51 µM.
The same measure, in the same setting: for `O=C(O)c1ccccc1CC1Cc2ccccc2C1=O` (stereo not drawn) the value was > 100 µM; for `CCCCCCOc1ccc(C(=O)NOC)cc1`, > 100 µM.
On the same count and under the same terms, for `NS(=O)(=O)c1cc(Cl)c(NC(=S)NC(=O)Nc2ccc(Cl)c(Cl)c2)c(Cl)c1` the value was > 100 µM.
The same measure, in the same setting: for `Cc1cn(C2CC(O)C(CO)O2)c(=O)[nH]c1=O` (stereo not drawn) the value was 4630 µM; for `O=C1c2ccccc2-c2c1c(-c1ccc(F)cc1)nc1ccc3ccccc3c21`, > 100 µM.
Take `O=C(O)CCC(=O)OC1N=C(c2ccccc2Cl)c2cc([N+](=O)[O-])ccc2NC1=O` (stereo not drawn): the TGI was > 100 µM.
Take `CO[C@H]1/C=C(/C)CCC[C@H](C)[C@H](O)[C@@H](C)C(=O)C(C)(C)[C@@H](O)CC(=O)O[C@@H]1/C(C)=C/c1csc(C)n1`: the GI50 was 0.0414 µM and the TGI was > 100 µM.
Consider `COc1cccc2c(=O)oc(-c3ccc(C(C)(C)C)cc3)nc12`, for which the TGI is > 100 µM.
Same read-out and setting: for `COC(=O)C1CCC(=O)N1C(c1ccc(OC)cc1)c1ccc2c(c1)OCO2` (stereo not drawn) the value was > 100 µM.
As for `CCN(CC)CCn1c(=O)c2cccnc2n2c3c(=O)n(C)c(=O)n(C)c3nc12`, the TGI is > 100 µM.
Still for that read-out and setting: then `CC(=N/N=C/c1ccccn1)/C(C)=N/N=C(C)/C(C)=N/N=C(C)/C(C)=N/N=C(C)/C(C)=N\N=C\c1ccccn1`, with > 100 µM.
`CC1=NN(c2cccc(Cl)c2)C2(C1=C/C=C/c1ccccc1)C(Cl)C(=O)N2c1nc2ccccc2s1` (stereo not drawn): the TGI was > 100 µM.
`C=CCSc1nnc2cc(CN3CCCC3)c(-c3ccc(Cl)cc3)nn12` displayed a TGI of 45.4 µM.
Turning to `CN(C)c1ccc(C(=N/N=C2\C(=O)Nc3ccccc32)c2ccc(N(C)C)cc2)cc1`, the TGI was determined as 41.9 µM.
On the same count and under the same terms, for `CCN(CC)CCN(C(=Nc1ccccc1)N1CCOCC1)c1ccccc1` the value was > 100 µM; for `CC1(C)CCCC2OC2CCC(C)(C)C1=O` (stereo not drawn), > 100 µM.
For `COP(=O)(/C=C/c1cc(C(=O)OCc2ccccc2)n(S(=O)(=O)c2ccccc2)c1)OC`, the TGI was > 100 µM.
For the molecule `NC1=NCC(CN2CCOCC2)O1` (stereo not drawn), the TGI is > 100 µM.
Still for that read-out and setting: then `CCC1(CC)C(=O)NN(C(=O)c2ccccc2)C1=O`, with > 100 µM.
